For data set [1], the system named is CT26. Nature of the data set: Animal experiment using HDAC6 inhibitor with or without anti-PD-L1 antibody, CT26 tumors. The class given is in vivo. As to conditions: during treatment with HDAC6 inhibitor; FIG. 9D. The method, then: The animal experiment using an HDAC6 inhibitor was conducted using a total of three groups, a control group (control), an HDAC6i (Next A) group, and an HDAC6i (Next A)+anti-PD-L1 group. Nexturastat A (SellekChem) was used as HDAC6i (HDAC6 inhibitor), and #BE0101(Bioxcell) was used as an anti-PD-L1 antibody. CT26 (1x10^6) cells and BALB/C mice were used. Three mice for the control group, three mice for the HDAC6i group, and four mice for the HDAC6i+anti-PD-L1 group were used.
• HDAC6i group: HDAC6i 20 mpk(mg/kg) intraperitoneally injected daily • HDAC6i+anti-PD-L1 group: HDAC6i 20 mpk intra peritoneally injected every day and anti-PD-L1 antibody 10 mpk intra peritoneally injected three times per week.
In addition, paraffin blocks of tumor tissues were prepared for histological staining, and subjected to H&E and TUNEL assay in order to investigate cell death. […]
Additionally, the expression of related genes was examined by real-time PCR after the isolation of RNA form tumors. In the animal experiment according to an example of the present invention, the mRNA changes of PD-L1, TNF-a and IFN-γ (pro-inflammatory cytokines), IL-6 (anti-inflammatory cytokine), and IRF-1 (target gene for JAK2/STAT1 signaling) were measured, and the results are shown in FIG. 11.

A further data set relates to PD-L1. Nature of the data set: PD-L1 expression (real-time PCR, western blot) in colorectal cell lines 48 hours after HDAC inhibitor treatment. It is filed as cell-based. As to conditions: for PD-L1 expression at the RNA and protein levels: depending on the concentration; for PD-L1 expression: IC50 and 1/2 IC50, 48 hours, FIG. 2. The method, then: The HDAC3 inhibitor experiment was conducted by harvesting cells 48 hours after the treatment at each inhibitor concentration and obtaining RNA and proteins. RGFP966 (S7229) purchased from SellekChem was used as an HDAC3 inhibitor. Specifically, SW620, LS513, DLD-1, CT26, and MC38 were individually cultured, and the experiments were conducted using the IC50 and 1/2 IC50 concentration on the basis of the previously determined IC50 concentration. RNA and protein samples were collected 48 hours after RGFP966 treatment. The RNA samples were isolated using the TRIzol, isopropanol, and chloroform, and the protein samples were collected by lysis with a lysis buffer (Roche, 4719956001). RNA was synthesized into cDNA using a cDNA synthesis kit (Bioneer, K-2044-B), and real-time PCR was performed using a method according to SYBR (Applied Biosystems, 4367659). Proteins were quantified using the Bradford assay (Bio-Rad, 50000006), and subjected to loading, transfer, blocking (3% skim milk; BD, 232100), primary antibody (24 h, 4°C), and secondary antibody sequentially, thereby developing PD-L1.
The HDAC6 inhibitor experiment was conducted by the same method as in the HDAC3 inhibitor experiment of Experimental Example 3, and Nexturastat A HDAC6 selective inhibitor purchased from SellekChem was used as an HDAC6 inhibitor.
The HDAC8 inhibitor experiment was conducted by the same method as in the HDAC3 inhibitor experiment of Experimental Example 3, and PCI-34051 HDAC8 selective inhibitor purchased from SellekChem was used as an HDAC8 inhibitor.
The HDAC6 and HDAC8 inhibitor experiment was conducted by harvesting cells 48 hours after the treatment and then obtaining RNA and proteins.

Another data set relates to SW620. Nature of the data set: IC50 concentration at which 50% of cells are dead, inhibitor treatment for 48 hours. The class given is cell-based. As to conditions: Homo sapiens, SW-620, Table 3, SW620 (MSS), read-out: IC50(mean±SD). On the procedure: (§1) The IC50 concentration, which is the concentration at which 50% of cells are dead, was obtained by treating each cell line with an inhibitor at different concentrations for 48 hours and then determining the concentrations at which 50% of the cells were dead. Especially, the results obtained by treating various MSS cell lines (SW620, LS513, HT29, and CT26) with HDAC6i are shown in Table 4 below.

Another data set relates to DLD-1. The data set is described as above. It is filed as cell-based. As to conditions: Homo sapiens, Table 3, DLD-1 (MSI), read-out: IC50(mean±SD). The method, then:
as §1

In data set [2] the test system is CT26. The description is as above. It is filed as cell-based. As to conditions: Mus musculus; Table 4; CT26, MSS (48hr); read-out: IC50(mean±SD). On the procedure: as §1
In a further data set the test system is HT29. The description is as above. It is filed as cell-based. As to conditions: Homo sapiens, HT-29; Table 4; HT29, MSS (48hr); read-out: IC50(mean±SD). On the procedure: as §1
A further data set has as its system LS513. The data set is described as above. It is filed as cell-based. As to conditions: Homo sapiens, LS-513, Table 3, LS513 (MSS), read-out: IC50(mean±SD). The method, then:
as §1

The next data set has as its system PD-L1 and B7H3. Nature of the data set: PD-L1 and B7H3 expression after HDAC6 inhibitor treatment in MSI and MSS colorectal cancer cell lines. It is filed as cell-based. As to conditions: IC50 and half-IC50 concentrations; MSS cell line compared with MSI cell line; FIG. 15. On the procedure: The IC50 values of the HDAC6 inhibitor (Nexturastat A) in three MSI colorectal cancer cell lines (DLD-1, HCT116, and MC38) and three MSS colorectal cancer cell lines (SW620, HT29, and CT26) were determined. The cells were then treated with the inhibitor at the IC50 and half-IC50 concentrations (concentration corresponding to 1/2 of the IC50 value), and the expression levels of the immune checkpoint proteins PD-L1 and B7H3 were measured.

Molecules are shown by their SMILES. pIC50: −log10 of the molar value.

The pIC50 is the negative decadic logarithm of the IC50, by convention in mol/L.

Regarding `CCCCN(Cc1ccc(C(=O)NO)cc1)C(=O)Nc1ccccc1` [Nexturastat A], the “body weight of the mice” value with CT26 [1] is given as “not reduced”. Further, the “PD-L1 expression at the RNA and protein levels” value with PD-L1 (MSS cell lines (SW620, LS513, HT29, and CT26), FIG. 4) is “increase”. Moreover, the pIC50 was 5.17 in the data set on SW620; 4.97 in the data set on DLD-1; 4.57 with CT26 [2]; 4.95 with HT29; 4.57 in the data set on LS513. For the same compound, in the data set with PD-L1 and B7H3, the B7H3 expression result is “distinct increase tendencies”. Further, in the data set with PD-L1 and B7H3, the PD-L1 expression result is “distinct increase tendencies”.
For the compound `COc1ccc(Cn2ccc3ccc(C(=O)NO)cc32)cc1` [PCI-34051], in the data set on PD-L1 (MSS cell lines (SW620, LS513, and CT26), FIG. 6), the “PD-L1 expression at the RNA and protein levels” value was “increase”. For the same compound, the pIC50 in the data set on SW620 was 4.50; in the data set with DLD-1, 5.20; with LS513, 4.71.
For `Nc1cc(F)ccc1NC(=O)/C=C/c1cnn(C/C=C/c2ccccc2)c1` [RGFP966], the PD-L1 expression entry with PD-L1 (MSS cell lines (SW620, LS513, and CT26), compared with HDAC6 and HDAC8) is recorded as “small increases”; with PD-L1 (mouse cells), “decrease tendency”. Further, the figures for the negative logarithm of the IC50 (pIC50) in the data set with SW620, with DLD-1 and in the data set with LS513 were 4.62, 3.92 and 4.37, respectively.

The values are drawn from patent EP4595976A1, “COMPOSITION FOR TREATING CANCER CONTAINING HISTONE DEACETYLASE INHIBITOR, AND ANTICANCER ADJUVANT FOR CANCER IMMUNOTHERAPY” (Samsung Life Public Welfare Foundation, priority 2022, dated 2024).
